Consider 7 compounds from US20260022143A1, “Cyclic Peptide Inhibitors of IL-23” (JANSSEN PHARMACEUTICA NV, priority 2022, published 2026).

A short description of series [1]: Exposed Polar Surface Area (EPSA). The series is classed as physicochemical. The settings on record: SFC on Chirex 3014 column; sample 1 mM DMSO stock; read-out: EPSA. A digest of the protocol:
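Polarity measured by SFC on a Chirex 3014 column (35 °C, 4 mL/min) with methanol/ammonium formate in CO2 as gradient eluent. Retention times were normalised to EPSA (Å^2) against eight reference compounds.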

Another series concerns the target T1, IL-23R (Homo sapiens, UniProt Q5VWK5).
T1 construct: host or cells: HEK293
T1 sequence (Q5VWK5 24-629): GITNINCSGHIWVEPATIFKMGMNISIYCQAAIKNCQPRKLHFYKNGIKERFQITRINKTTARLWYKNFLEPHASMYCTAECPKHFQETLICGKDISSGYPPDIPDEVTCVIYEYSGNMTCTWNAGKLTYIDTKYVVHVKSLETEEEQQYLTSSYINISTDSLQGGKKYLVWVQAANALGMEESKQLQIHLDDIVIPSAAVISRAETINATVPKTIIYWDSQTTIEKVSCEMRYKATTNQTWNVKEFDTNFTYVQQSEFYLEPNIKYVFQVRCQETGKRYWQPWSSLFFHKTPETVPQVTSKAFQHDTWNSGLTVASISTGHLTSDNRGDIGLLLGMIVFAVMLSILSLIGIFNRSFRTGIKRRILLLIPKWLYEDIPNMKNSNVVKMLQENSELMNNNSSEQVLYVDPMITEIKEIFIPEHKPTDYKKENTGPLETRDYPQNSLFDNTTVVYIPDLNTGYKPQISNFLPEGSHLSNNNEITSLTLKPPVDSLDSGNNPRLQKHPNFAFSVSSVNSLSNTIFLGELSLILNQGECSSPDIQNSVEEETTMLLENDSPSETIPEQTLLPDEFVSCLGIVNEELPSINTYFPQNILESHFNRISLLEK
Briefly: IL23R Reporter Assay. It counts as cell-based. Particulars: HEK293 cells containing IL-23R, IL-12RP1 and STAT-inducible firefly luciferase reporter; 10 ng/mL IL-23 (EC90); 5 h at 37° C.; read-out: IL23R Reporter Assay. For orientation: In a reporter assay the amount or activity of a reporter protein is the signal.

Starred links: 1 amine or outer side, 2 acyl side, 3 side chain; linkers in the order of their positions; H or OH if unused. Positions of bridges follow the written chain, without caps; N, C: chain ends. Non-standard residues stand in square brackets, D forms with d. Residues, ends and D or L forms follow the SMILES beside them. Groups on a side chain read outwards from the residue. *: point of attachment. Me3N+(CH2)2O(CH2)2O(CH2)2CO = C[N+](C)(C)CCOCCOCCC(=O)*; X59 = C[N+](C)(C)CCN(CC*)S(=O)(=O)c1ccccc1[N+](=O)[O-]; CH2CH2OCH2CH2OCH2CH2NMe3+ = C[N+](C)(C)CCOCCOCC*; NH(CH2CH2O)2CH2CH2NMe3+ = C[N+](C)(C)CCOCCOCCN*; Trp(7-Me) = Cc1cccc2c(C[C@H](N)C(=O)O)c[nH]c12; Dab(NMeAc) = CC(=O)N(C)CC[C@H](N)C(=O)O; 2Nal = N[C@@H](Cc1ccc2ccccc2c1)C(=O)O; X19 = C[N+](C)(C)C[C@@H](CC(=O)O)N*; X65 = COCCOCCC[N+](C)(CCCOCCOC)CC*; 3Pal = N[C@@H](Cc1cccnc1)C(=O)O; X54 = CC(=O)N(CC[N+](C)(C)C)CC*; Lys(Me) = CNCCCC[C@H](N)C(=O)O; Pen = CC(C)(S)[C@H](N)C(=O)O; Suc = O=C(CCC(=O)[*:2])[*:1]; X4 = COCCOCCCN(CCCOCCOC)CC*; X18 = C[N+]1(C)CCOC(C*)C1; Thp = NC1(C(=O)O)CCOCC1; X3 = C[N+](C)(C)CCCCC*; Sar = CNCC(=O)O

In the case of `CC(=O)N(C)CCCC[C@@H]1NC(=O)[C@H](Cc2c[nH]c3c(C)cccc23)NC(=O)[C@H]([C@@H](C)O)NC(=O)[C@H](CC(=O)N(C)C)NC(=O)[C@@H](NC(=O)CCOCCOCC[N+](C)(C)C)C(C)(C)SSC(C)(C)[C@@H](C(=O)N[C@@H](Cc2ccc(OCC3C[N+](C)(C)CCO3)cc2)C(=O)N[C@@H](Cc2ccc3ccccc3c2)C(=O)NC2(C(=O)N[C@@H](CCCCN(C)C(C)=O)C(=O)N[C@@H](CC(N)=O)C(=O)N[C@@H](Cc3cccnc3)C(=O)N(C)CC(=O)N(C)C)CCOCC2)NC1=O` (stereo partly drawn) [compound 202, cPEG3aCO-Pen(3)-N(N(Me)2)-T-7MeW-K(NMeAc)-Pen(3)-DMPMF-2Nal-THP-K(NMeAc)-N-3Pya-Sar-CON(Me)2] ({Me3N+(CH2)2O(CH2)2O(CH2)2CO}-[Pen]D(NMe2)T[Trp(7-Me)][Lys(Me)](Ac)[Pen]Y(X18)[2Nal][Thp][Lys(Me)](Ac)N[3Pal][Sar]-NMe2; disulfide 1-6), the EPSA in series [1] worked out at 146 A^2. Besides, at IL-23R, the IC50 turned out to be 3.5 nM.

With `COCCOCCCN(CCCOCCOC)CCOc1ccc(C[C@H](NC(=O)[C@H]2NC(=O)[C@H](CCCCN(C)C(C)=O)NC(=O)[C@H](Cc3c[nH]c4c(C)cccc34)NC(=O)[C@H]([C@@H](C)O)NC(=O)[C@H](CC(=O)N(C)C)NC(=O)[C@@H](NC(=O)CCOCCOCC[N+](C)(C)C)C(C)(C)SSC2(C)C)C(=O)N[C@@H](Cc2ccc3ccccc3c2)C(=O)NC2(C(=O)N[C@@H](CCCCN(C)C(C)=O)C(=O)N[C@@H](CC(N)=O)C(=O)N[C@@H](Cc3cccnc3)C(=O)N(C)CC(=O)N(C)C)CCOCC2)cc1` [compound 203, cPEG3aCO-Pen(3)-N(N(Me)2)-T-7MeW-K(NMeAc)-Pen(3)-AEF(BisMEP))-2Nal-THP-K(NMeAc)-N-3Pya-Sar-CON(Me)2] ({Me3N+(CH2)2O(CH2)2O(CH2)2CO}-[Pen]D(NMe2)T[Trp(7-Me)][Lys(Me)](Ac)[Pen]Y(X4)[2Nal][Thp][Lys(Me)](Ac)N[3Pal][Sar]-NMe2; disulfide 1-6), the EPSA in series [1] is 135 A^2. The IC50 on IL-23R was 1.6 nM.

For `CC(=O)N(C)CCCC[C@@H]1NC(=O)[C@H](Cc2c[nH]c3c(C)cccc23)NC(=O)[C@H]([C@@H](C)O)NC(=O)[C@H](CC(=O)N(C)C)NC(=O)[C@@H](NC(=O)CCOCCOCC[N+](C)(C)C)C(C)(C)SSC(C)(C)[C@@H](C(=O)N[C@@H](Cc2ccc(OCCN(CC[N+](C)(C)C)S(=O)(=O)c3ccccc3[N+](=O)[O-])cc2)C(=O)N[C@@H](Cc2ccc3ccccc3c2)C(=O)NC2(C(=O)N[C@@H](CCCCN(C)C(C)=O)C(=O)N[C@@H](CC(N)=O)C(=O)N[C@@H](Cc3cccnc3)C(=O)N(C)CC(=O)N(C)C)CCOCC2)NC1=O` [compound 206, cPEG3aCO-Pen(3)-N(N(Me)2)-T-7MeW-K(NMeAc)-Pen(3)-AEF(NsCh)-2Nal-THP-K(NMeAc)-N-3Pya-Sar-CON(Me)2] ({Me3N+(CH2)2O(CH2)2O(CH2)2CO}-[Pen]D(NMe2)T[Trp(7-Me)][Lys(Me)](Ac)[Pen]Y(X59)[2Nal][Thp][Lys(Me)](Ac)N[3Pal][Sar]-NMe2; disulfide 1-6), in series [1], the EPSA worked out at 145 A^2. Moreover, at IL-23R, the IC50 came to 2.6 nM.

As for `CC(=O)N(C)CCCC[C@@H]1NC(=O)[C@H](Cc2c[nH]c3c(C)cccc23)NC(=O)[C@H]([C@@H](C)O)NC(=O)[C@H](CC(=O)N(C)C)NC(=O)[C@@H](NC(=O)CCOCCOCC[N+](C)(C)C)C(C)(C)SSC(C)(C)[C@@H](C(=O)N[C@@H](Cc2ccc(OCCN(CC[N+](C)(C)C)C(C)=O)cc2)C(=O)N[C@@H](Cc2ccc3ccccc3c2)C(=O)NC2(C(=O)N[C@@H](CCCCN(C)C(C)=O)C(=O)N[C@@H](CC(N)=O)C(=O)N[C@@H](Cc3cccnc3)C(=O)N(C)CC(=O)N(C)C)CCOCC2)NC1=O` [compound 207, cPEG3aCO-Pen(3)-N(N(Me)2)-T-7MeW-K(NMeAc)-Pen(3)-AEF(AcCh)-2Nal-THP-K(NMeAc)-N-3Pya-Sar-CON(Me)2] ({Me3N+(CH2)2O(CH2)2O(CH2)2CO}-[Pen]D(NMe2)T[Trp(7-Me)][Lys(Me)](Ac)[Pen]Y(X54)[2Nal][Thp][Lys(Me)](Ac)N[3Pal][Sar]-NMe2; disulfide 1-6), the EPSA in series [1] was 139 A^2. For the same compound, the IC50 at IL-23R is 3.2 nM.

As to `CC(=O)N[C@H](CCCCNC(=O)CCC(=O)N[C@H](CC(=O)O)C[N+](C)(C)C)C(=O)N[C@@H]1C(=O)N[C@@H](CC(=O)N(C)C)C(=O)N[C@@H]([C@@H](C)O)C(=O)N[C@@H](Cc2c[nH]c3c(C)cccc23)C(=O)N[C@@H](CCCCN(C)C(C)=O)C(=O)N[C@H](C(=O)N[C@@H](Cc2ccc(OCCOCCOCC[N+](C)(C)C)cc2)C(=O)N[C@@H](Cc2ccc3ccccc3c2)C(=O)NC2(C(=O)N[C@@H](CCN(C)C(C)=O)C(=O)N[C@@H](CC(N)=O)C(=O)N[C@@H](Cc3cccnc3)C(=O)N(C)CC(=O)N(C)C)CCOCC2)C(C)(C)SSC1(C)C` [compound 213, MeCO-k(d)-Pen(3)-N(N(Me)2)-T-7MeW-K(NMeAc)-Pen(3)-APEG3F-2Nal-THP-Dab(NMeAc)-N-3Pya-Sar-CON(Me)2] (Ac-[dK]([Suc-X19])[Pen]D(NMe2)T[Trp(7-Me)][Lys(Me)](Ac)[Pen]Y(CH2CH2OCH2CH2OCH2CH2NMe3+)[2Nal][Thp][Dab(NMeAc)]N[3Pal][Sar]-NMe2; disulfide 2-7), in series [1], the EPSA was 154 A^2. The IC50 on IL-23R worked out at 5.1 nM.

In the case of `CC(=O)N(C)CCCC[C@@H]1NC(=O)[C@H](Cc2c[nH]c3c(C)cccc23)NC(=O)[C@H]([C@@H](C)O)NC(=O)[C@H](CC(=O)N(C)C)NC(=O)[C@@H](NC(=O)CCOCCOCC[N+](C)(C)C)C(C)(C)SSC(C)(C)[C@@H](C(=O)N[C@@H](Cc2ccc(OCCCCC[N+](C)(C)C)cc2)C(=O)N[C@@H](Cc2ccc3ccccc3c2)C(=O)NC2(C(=O)N[C@@H](CCCCN(C)C(C)=O)C(=O)N[C@@H](CC(N)=O)C(=O)N[C@@H](Cc3cccnc3)C(=O)N(C)CC(=O)NCCOCCOCC[N+](C)(C)C)CCOCC2)NC1=O` [compound 220, cPEG3aCO-Pen(3)-N(N(Me)2)-T-7MeW-K(NMeAc)-Pen(3)-TMAPF-2Nal-THP-K(NMeAc)-N-3Pya-Sar-CO(NHPEG3a)] ({Me3N+(CH2)2O(CH2)2O(CH2)2CO}-[Pen]D(NMe2)T[Trp(7-Me)][Lys(Me)](Ac)[Pen]Y(X3)[2Nal][Thp][Lys(Me)](Ac)N[3Pal][Sar]-{NH(CH2CH2O)2CH2CH2NMe3+}; disulfide 1-6), the EPSA in series [1] was determined as 142 A^2. For the same compound, the IC50 at IL-23R was 1.4 nM.

In the case of `COCCOCCC[N+](C)(CCCOCCOC)CCOc1ccc(C[C@H](NC(=O)[C@H]2NC(=O)[C@H](CCCCN(C)C(C)=O)NC(=O)[C@H](Cc3c[nH]c4c(C)cccc34)NC(=O)[C@H]([C@@H](C)O)NC(=O)[C@H](CC(=O)N(C)C)NC(=O)[C@@H](NC(=O)CCOCCOCC[N+](C)(C)C)C(C)(C)SSC2(C)C)C(=O)N[C@@H](Cc2ccc3ccccc3c2)C(=O)NC2(C(=O)N[C@@H](CCCCN(C)C(C)=O)C(=O)N[C@@H](CC(N)=O)C(=O)N[C@@H](Cc3cccnc3)C(=O)N(C)CC(=O)N(C)C)CCOCC2)cc1` [compound 221, cPEG3aCO-Pen(3)-N(N(Me)2)-T-7MeW-K(NMeAc)-Pen(3)-AEF(BisMEPa)-2Nal-THP-K(NMeAc)-N-3Pya-Sar-CON(Me)2Â] ({Me3N+(CH2)2O(CH2)2O(CH2)2CO}-[Pen]D(NMe2)T[Trp(7-Me)][Lys(Me)](Ac)[Pen]Y(X65)[2Nal][Thp][Lys(Me)](Ac)N[3Pal][Sar]-NMe2; disulfide 1-6), the EPSA in series [1] came to 134 A^2. For the same compound, on IL-23R, the IC50 is 1.8 nM.
